Laboratory results taken from patent publication US8846601B2, “Melanocortin receptor-specific peptides” (Palatin Technologies, Inc., priority 2009, dated 2014).
Where two headings read alike, the source gives them in different places. Peptide text beside a SMILES is read from it.

Tests used:
hMC4-R [1] = molecular target: T1, hMC4-R (Homo sapiens (Human), UniProt P32245); test: Competitive inhibition binding assay using [I125]-NDP-α-MSH, hMC4-R membranes
Summary of the method: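 Membranes from HEK-293 cells expressing recombinant hMC1-R or hMC4-R incubated with 0.1 nM (MC1-R) or 0.2 nM (MC4-R) [I125]-NDP-α-MSH and increasing peptide concentrations in HEPES pH 7.5, 60 min at 37 °C; filtered, gamma counted.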

hMC1-R [2] = molecular target: T2, hMC1-R (Homo sapiens (Human), UniProt Q01726); test: Competitive inhibition binding assay, human recombinant MC1-R
T2 sequence (Q01726 whole entry): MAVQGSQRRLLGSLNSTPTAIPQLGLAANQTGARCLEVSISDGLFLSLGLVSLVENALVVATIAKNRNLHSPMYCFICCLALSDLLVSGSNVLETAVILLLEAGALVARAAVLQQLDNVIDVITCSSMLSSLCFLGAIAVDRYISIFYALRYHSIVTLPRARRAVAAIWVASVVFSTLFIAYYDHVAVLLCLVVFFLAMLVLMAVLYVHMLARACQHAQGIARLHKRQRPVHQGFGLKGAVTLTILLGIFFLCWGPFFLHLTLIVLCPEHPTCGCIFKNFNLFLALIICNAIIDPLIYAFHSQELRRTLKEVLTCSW
Experimental: A competitive inhibition binding assay is performed using membrane homogenates prepared from HEK-293 cells that express recombinant hMC4-R, hMC3-R, or hMC5-R, and from B-16 mouse melanoma cells (containing endogenous MC1-R). In some instances, HEK-293 cells that express recombinant hMC1-R were employed. In the examples that follow, all MC3-R, MC4-R and MC5-R values are for human recombinant receptors. […] Membrane homogenates were incubated with 0.2 nM (for hMC4-R) 0.4 nM (for MC3-R and MC5-R) or 0.1 nM (for mouse B16 MC1-R or hMC1-R) [I^125]-NDP-α-MSH (Perkin Elmer) and increasing concentrations of test peptides of the present invention in buffer containing 25 mM HEPES buffer (pH 7.5) with 100 mM NaCl, 2 mM CaCl2, 2 mM MgCl2, 0.3 mM 1,10-phenanthroline, and 0.2% bovine serum albumin. After incubation for 60 minutes at 37° C., the assay mixture was filtered and the membranes washed three times with ice-cold buffer. Filters were dried and counted in a gamma counter for bound radioactivity. […] Maximal specific binding (100%) was defined as the difference in radioactivity (cpm) bound to cell membranes in the absence and presence of 1 μM NDP-α-MSH. […] Each assay was conducted in triplicate and the actual mean values are described, with results less than 0% reported as 0%. Ki values for test peptides of the present invention were determined using Graph-Pad Prism® curve-fitting software.

hMC1-R [3] = molecular target: T2, hMC1-R; test: Functional assay (EC50 and intrinsic activity) at hMC1-R; type: cell-based
Male Sprague-Dawley rats [4] = test: Induction of penile erection in male rats; type: in vivo, rat; settings: for induction of penile erection: male Sprague-Dawley rats, subcutaneous, 60 minute observation, No. 154 as trifluoracetic acid salt, No. 155 as acetate salt
Source text: Each dose group contained six or seven animals, with video observation for sixty minutes following administration.

[5] = Pharmacokinetic studies, rat model, subcutaneous injection; settings: in vivo, sc, formulation as in Section 9.7, read-out: circulation half life (converted)
hMC4-R [6] = molecular target: T1, hMC4-R; test: Assay for agonist activity: cAMP accumulation in HEK-293 cells that express hMC4-R; settings: for functional status at MC4-R (agonist / partial agonist): agonist = intrinsic activity 70% or higher, partial agonist 10-70%
Experimental: By “intrinsic activity” is meant the maximal functional activity achievable by a compound in a specified melanocortin receptor expressing cell system, such as the maximal stimulation of adenylyl cyclase.
Accumulation of intracellular cAMP was examined as a measure of the ability of the peptides of the present invention to elicit a functional response in HEK-293 cells that express MC4-R. Confluent HEK-293 cells that express recombinant hMC4-R were detached from culture plates by incubation in enzyme-free cell dissociation buffer. Dispersed cells were suspended in Earle's Balanced Salt Solution containing 10 mM HEPES (pH 7.5), 1 mM MgCl2, 1 mM glutamine, 0.5% albumin and 0.3 mM 3-isobutyl-1-methyl-xanthine (IBMX), a phosphodiesterase inhibitor. […] Cells were exposed for 15 minutes at 37° C. to peptides of the present invention dissolved in DMSO (final DMSO concentration of 1%) at a concentration range of 0.05-5000 nM in a total assay volume of 200 μL. […] Data analysis was performed by nonlinear regression analysis with Graph-Pad Prism® software. The maximum efficacies of the test peptides of the present invention were compared to that achieved by the reference melanocortin agonist NDP-αMSH.

[7] = molecular target: T3, MC1-R (B-16 mouse melanoma cells) (Mus musculus (Mouse), UniProt Q01727); test: Competitive binding using Eu-labeled NDP-α-MSH, MC1-R
T3 sequence (Q01727 whole entry): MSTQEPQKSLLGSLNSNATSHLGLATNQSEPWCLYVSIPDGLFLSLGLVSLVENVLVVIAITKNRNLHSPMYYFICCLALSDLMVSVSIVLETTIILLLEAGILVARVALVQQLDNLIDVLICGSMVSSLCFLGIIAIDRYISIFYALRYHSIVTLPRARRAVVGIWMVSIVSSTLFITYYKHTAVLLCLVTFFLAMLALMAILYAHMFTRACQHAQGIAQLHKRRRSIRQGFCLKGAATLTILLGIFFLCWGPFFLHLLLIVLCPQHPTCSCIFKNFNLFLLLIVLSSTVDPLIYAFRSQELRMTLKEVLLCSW
Experimental: A competitive inhibition binding assay is performed using membrane homogenates prepared from HEK-293 cells that express recombinant hMC4-R, hMC3-R, or hMC5-R, and from B-16 mouse melanoma cells (containing endogenous MC1-R). In some instances, HEK-293 cells that express recombinant hMC1-R were employed. In the examples that follow, all MC3-R, MC4-R and MC5-R values are for human recombinant receptors. MC1-R values are for B-16 mouse melanoma cells, unless the heading is “hMC1-R”, in which case the value is for human recombinant MC1-R. Assays were performed in 96 well GF/B Millipore multiscreen filtration plates (MAFB NOB10) pre-coated with 0.5% bovine serum albumin (Fraction V). Membrane homogenates were incubated with 0.2 nM (for hMC4-R) 0.4 nM (for MC3-R and MC5-R) or 0.1 nM (for mouse B16 MC1-R or hMC1-R) [I^125]-NDP-α-MSH (Perkin Elmer) and increasing concentrations of test peptides of the present invention in buffer containing 25 mM HEPES buffer (pH 7.5) with 100 mM NaCl, 2 mM CaCl2, 2 mM MgCl2, 0.3 mM 1,10-phenanthroline, and 0.2% bovine serum albumin. After incubation for 60 minutes at 37° C., the assay mixture was filtered and the membranes washed three times with ice-cold buffer. Filters were dried and counted in a gamma counter for bound radioactivity. […] Maximal specific binding (100%) was defined as the difference in radioactivity (cpm) bound to cell membranes in the absence and presence of 1 μM NDP-α-MSH. […] Ki values for test peptides of the present invention were determined using Graph-Pad Prism® curve-fitting software.
Alternatively, a competitive inhibition binding assay was performed employing Eu-NDP-α-MSH (PerkinElmer Life Sciences catalog No. AD0225) with determination by time-resolved fluorometry (TRF) of the lanthanide chelate. […] The plates were incubated on a shaker for 15 minutes and read at 340 nm excitation and 615 nm emission wavelengths. […] Ki values were determined by curve-fitting with Graph-Pad Prism® software using a one-site fixed-slope competition binding model.

hMC3-R = hMC3-R (Homo sapiens (Human), UniProt P41968); test: Competitive binding using Eu-labeled NDP-α-MSH, MC3-R
Chain of hMC3-R (P41968 whole entry): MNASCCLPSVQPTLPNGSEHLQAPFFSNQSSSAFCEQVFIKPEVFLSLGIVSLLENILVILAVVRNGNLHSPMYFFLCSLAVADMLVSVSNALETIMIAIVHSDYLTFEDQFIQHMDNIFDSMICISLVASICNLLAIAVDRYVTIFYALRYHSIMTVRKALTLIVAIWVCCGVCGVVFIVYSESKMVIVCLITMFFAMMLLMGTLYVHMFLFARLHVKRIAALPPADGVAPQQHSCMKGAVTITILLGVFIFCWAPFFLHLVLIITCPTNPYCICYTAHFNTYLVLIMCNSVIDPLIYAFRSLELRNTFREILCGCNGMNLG
Experimental: (§1) A competitive inhibition binding assay is performed using membrane homogenates prepared from HEK-293 cells that express recombinant hMC4-R, hMC3-R, or hMC5-R, and from B-16 mouse melanoma cells (containing endogenous MC1-R). In some instances, HEK-293 cells that express recombinant hMC1-R were employed. In the examples that follow, all MC3-R, MC4-R and MC5-R values are for human recombinant receptors. MC1-R values are for B-16 mouse melanoma cells, unless the heading is “hMC1-R”, in which case the value is for human recombinant MC1-R. Assays were performed in 96 well GF/B Millipore multiscreen filtration plates (MAFB NOB10) pre-coated with 0.5% bovine serum albumin (Fraction V). […] Filters were dried and counted in a gamma counter for bound radioactivity. […] Maximal specific binding (100%) was defined as the difference in radioactivity (cpm) bound to cell membranes in the absence and presence of 1 μM NDP-α-MSH. […] Ki values for test peptides of the present invention were determined using Graph-Pad Prism® curve-fitting software.
Alternatively, a competitive inhibition binding assay was performed employing Eu-NDP-α-MSH (PerkinElmer Life Sciences catalog No. AD0225) with determination by time-resolved fluorometry (TRF) of the lanthanide chelate. […] The plates were incubated on a shaker for 15 minutes and read at 340 nm excitation and 615 nm emission wavelengths. […]

[8] = molecular target: T3, MC1-R (B-16 mouse melanoma cells); test: Competitive inhibition binding assay using [I125]-NDP-α-MSH, MC1-R
Experimental: as §1

Male Sprague-Dawley rats [9] = test: Rat feeding studies: food intake and body weight change; type: in vivo; settings: for food intake and rate of change in body weight: rat feeding studies, bremelanotide as positive control; for decrease in food consumption compared to control: rats
Experimental: Change in food intake and body weight was evaluated for selected peptides administered by intravenous (IV) or subcutaneous injection routes. Male Sprague-Dawley rats were obtained from Hilltop Lab Animals, Inc. (Scottsdale, Pa.) or other vendors. Animals were individually housed in conventional polystyrene hanging cages and maintained on a controlled 12 hour on/off light cycle. Water and pelleted food was provided ad libitum. The rats were dosed IV with vehicle or selected peptides (0.3 to 1.0 mg/kg), or dosed subcutaneously with vehicle or selected peptides (doses up to 30 mg/kg). […] The changes in body weight and food intake for the 48 hour and 72 hour periods after dosing can also be measured to determine reversal of changes in body weight and food intake effects back to baseline levels.

[10] = averaged, [I125]-NDP-α-MSH (values not marked *), read-out: MC4-R Ki
[11] = 1 mg/kg, 0-2, 0-4 and 0-20 hour periods

T1 sequence (P32245 whole entry): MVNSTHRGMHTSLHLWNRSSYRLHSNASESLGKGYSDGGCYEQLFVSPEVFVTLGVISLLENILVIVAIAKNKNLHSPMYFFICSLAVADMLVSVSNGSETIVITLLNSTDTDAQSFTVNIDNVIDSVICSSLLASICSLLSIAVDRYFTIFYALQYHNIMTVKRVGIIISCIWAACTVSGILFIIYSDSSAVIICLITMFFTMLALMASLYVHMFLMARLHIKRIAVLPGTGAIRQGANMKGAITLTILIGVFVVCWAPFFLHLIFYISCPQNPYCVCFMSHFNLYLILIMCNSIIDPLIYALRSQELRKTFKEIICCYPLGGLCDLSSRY

Structure (SMILES) | Ki (hMC4-R [1]; [10]) | Ki (hMC4-R [1]; read-out: hMC4-R (Ki)) | Ki (hMC1-R [2]) | EC50 (hMC1-R [3]) | EC50 (hMC4-R [6]) | also measured
CC(=O)N[C@@H](CCCNC(=N)N)C(=O)N[C@H]1CCCCNC(=O)C[C@@H](C(N)=O)NC(=O)[C@H](Cc2c[nH]c3ccccc23)NC(=O)[C@H](CCCNC(=N)N)NC(=O)[C@@H](Cc2ccccc2)NC(=O)[C@H](CC(N)=O)NC1=O [compound 155, Ac-Arg-cyclo(Lys-Asn- D-Phe-Arg-Trp-Asp)- NH2] (HELM PEPTIDE1{[ac].R.K.N.[dF].R.W.D.[am]}$PEPTIDE1,PEPTIDE1,3:R3-8:R3$$$V2.0) | 5 nM | 5 nM | 240 nM | 14 nM | 0.189 nM | induction of penile erection (Male Sprague-Dawley rats [4]): robustly induce a penile erection; half-life [5]: ~42 min
CC(=O)N[C@@H](CCCNC(=N)N)C(=O)N[C@H]1CC(=O)NCCCC[C@@H](C(N)=O)NC(=O)[C@H](Cc2c[nH]c3ccccc23)NC(=O)[C@H](CCCNC(=N)N)NC(=O)[C@@H](Cc2ccccc2)NC(=O)[C@H](Cc2c[nH]cn2)NC1=O [Peptide No. 1, Ac-Arg-cyclo(Asp-His- D-Phe-Arg-Trp-Lys)- NH2] | – | – | – | – | – | Ki [7]: 4 nM; Ki (hMC3-R): 103 nM; Ki [8]: 3 nM; food intake and rate of change in body weight (Male Sprague-Dawley rats [9]): reduce food intake and decrease the rate of change in body weight; decrease in food consumption compared to control (Male Sprague-Dawley rats [9]; 0.3 mg/kg, 0-2, 0-4 and 0-20 hour periods): statistically significant; decrease in food consumption compared to control (Male Sprague-Dawley rats [9]; [11]): statistically significant; observed spontaneous erections compared to vehicle (Male Sprague-Dawley rats [4]; rats, IV, doses of 0.3 or 1 mg/kg): statistically significant increase; functional status at MC4-R (agonist / partial agonist) (hMC4-R [6]): agonist
CC(=O)N[C@@H](CCCNC(=N)N)C(=O)N[C@H]1CCCC(=O)NCC[C@@H](C(N)=O)NC(=O)[C@H](Cc2c[nH]c3ccccc23)NC(=O)[C@H](CCCNC(=N)N)NC(=O)[C@@H](Cc2ccccc2)NC(=O)[C@H](CC(N)=O)NC1=O [compound 160, Ac-Arg-cyclo(hGlu-Asn- D-Phe-Arg-Trp-Dab)- NH2] (HELM PEPTIDE1{[ac].R.[O=C([C@H](CCCC(=O)[*:3])N[*:1])[*:2]].N.[dF].R.W.[Dab].[am]}$PEPTIDE1,PEPTIDE1,3:R3-8:R3$$$V2.0) | 8 nM | 8 nM | 295 nM | – | 0.245 nM | –
CC(=O)N[C@@H](CCCNC(=N)N)C(=O)N[C@H]1CC(=O)NCCCC[C@@H](C(N)=O)NC(=O)[C@H](Cc2c[nH]c3ccccc23)NC(=O)[C@H](CCCNC(=N)N)NC(=O)[C@@H](Cc2ccccc2)NC(=O)[C@H](C(C)C)NC1=O [Peptide No. 16, Ac-Arg-cyclo(Asp-Val- D-Phe-Arg-Trp-Lys)- NH2] | – | – | – | – | – | Ki [7]: 323 nM; Ki (hMC3-R): 1050 nM; food intake and rate of change in body weight (Male Sprague-Dawley rats [9]): reduce food intake and decrease the rate of change in body weight; decrease in food consumption compared to control (Male Sprague-Dawley rats [9]; 0.3 mg/kg, 0-2 and 0-4 hour periods): statistically significant; decrease in food consumption compared to control (Male Sprague-Dawley rats [9]; [11]): statistically significant; functional status at MC4-R (agonist / partial agonist) (hMC4-R [6]): partial agonist
CC(=O)N[C@@H](CCCNC(=N)N)C(=O)N[C@H]1CCC(=O)NCCC[C@@H](C(N)=O)NC(=O)[C@H](Cc2c[nH]c3ccccc23)NC(=O)[C@H](CCCNC(=N)N)NC(=O)[C@@H](Cc2ccccc2)NC(=O)[C@H](CC(N)=O)NC1=O [compound 161, Ac-Arg-cyclo(Glu-Asn- D-Phe-Arg-Trp-Orn)- NH2] | – | – | 155 nM | 13 nM | – | EC50 (hMC4-R [6]; read-out: hMC4-R EC50): 0.413 nM
CC(=O)N[C@@H](CCCNC(=N)N)C(=O)N[C@H]1CCCCNC(=O)C[C@@H](C(N)=O)NC(=O)[C@H](Cc2ccc3ccccc3c2)NC(=O)[C@H](CCCNC(=N)N)NC(=O)[C@@H](Cc2ccccc2)NC(=O)[C@H](CC(N)=O)NC1=O [compound 162, Ac-Arg-cyclo(Lys-Asn- D-Phe-Arg-Nal 2-Asp)- NH2] (HELM PEPTIDE1{[ac].R.K.N.[dF].R.[O=C([C@H](Cc1ccc2ccccc2c1)N[*:1])[*:2]].D.[am]}$PEPTIDE1,PEPTIDE1,3:R3-8:R3$$$V2.0) | 5 nM | 5 nM | 255 nM | 22 nM | 0.85 nM | –
CC(=O)N[C@@H](CCCNC(=N)N)C(=O)N[C@H]1CCCNC(=O)CC[C@@H](C(N)=O)NC(=O)[C@H](Cc2c[nH]c3ccccc23)NC(=O)[C@H](CCCNC(=N)N)NC(=O)[C@@H](Cc2ccccc2)NC(=O)[C@H](CC(N)=O)NC1=O [compound 154, Ac-Arg-cyclo(Orn-Asn- D-Phe-Arg-Trp-Glu)- NH2] | – | – | 688 nM | 25 nM | – | induction of penile erection (Male Sprague-Dawley rats [4]): robustly induce a penile erection; half-life [5]: ~42 min
CC(=O)N[C@H](CCCNC(=N)N)C(=O)N[C@H]1CCCNC(=O)CC[C@@H](C(N)=O)NC(=O)[C@H](Cc2c[nH]c3ccccc23)NC(=O)[C@H](CCCNC(=N)N)NC(=O)[C@@H](Cc2ccccc2)NC(=O)[C@H](CC(N)=O)NC1=O [compound 156, Ac-D-Arg-cyclo(Orn- Asn-D-Phe-Arg-Trp- Glu)-NH2] | – | – | 840 nM | 80 nM | – | –
CC(=O)N[C@@H](CCCNC(=N)N)C(=O)N[C@H]1CCNC(=O)CCC[C@@H](C(N)=O)NC(=O)[C@H](Cc2c[nH]c3ccccc23)NC(=O)[C@H](CCCNC(=N)N)NC(=O)[C@@H](Cc2ccccc2)NC(=O)[C@H](CCC(N)=O)NC1=O [compound 159, Ac-Arg-cyclo(Dab-Gln- D-Phe-Arg-Trp-hGlu)- NH2] | 4 nM | 4 nM | 133 nM | 26 nM | 0.825 nM | –
